# Laboratory results as given in patent publication US20240016775A1, “ANTI-CORONAVIRUS APPLICATION OF POLY ADP RIBOSE POLYMERASE INHIBITOR” (FUKANG (SHANGHAI) HEALTH TECHNOLOGY CO., LTD, priority 2020, published 2024).
# Where two headings read alike, the source gives them in different places.
# How the values were obtained:
# SARS-CoV-2 = assay: microbe, parasite or virus in culture; format: cell-based; settings: Vero-E6, MOI 0.05, 48 h
# [1] = cited from earlier work
# [2] = some healthy subjects, 3 hours after taking the drug; cited from earlier work
# [3] = rats, Male, cited from earlier work
# [4] = rats, oral 54 mg/kg, cited from earlier work
structure (smiles),measurement,setting,value
"CCOC(=O)c1c(CSc2ccccc2)n(C)c2cc(Br)c(O)c(CN(C)C)c12 [Arbidol, arbidol]","Inhibiting rate, %",SARS-CoV-2; 3 μM,21.73%
same,inhibition at 3 µM,"SARS-CoV-2; Severe acute respiratory syndrome coronavirus 2, Vero C1008, 48 h, read-out: Inhibiting rate, %, 3 μM",21%
same,inhibition at 30 µM,"SARS-CoV-2; Severe acute respiratory syndrome coronavirus 2, Vero C1008, 48 h, read-out: Inhibiting rate, %, 30 μM",98.9%
same,"Adverse events, share of subjects","[1]; nausea, diarrhea, dizziness, increased serum transaminases",about 6.2%
same,Peak concentration,[1]; single oral dose 200 mg,614.1 ± 342.5 ng/mL
same,Peak concentration,[1]; single oral dose 400 mg,904.2 ± 355.6 ng/mL
same,Peak concentration,[1]; single oral dose 600 mg,975.1 ± 661.0 ng/mL
same,Heart rate decrease,[2],2-24 beats/minute
same,AUC0-t,[3]; oral 18 mg/kg,1956 ± 895 ngh/mL
same,AUC0-∞,[3]; oral 18 mg/kg,2224 ± 1058 ngh/mL
same,Cmax,[3]; oral 18 mg/kg,1002 ± 298 ng/mL
same,Tmax,[3]; oral 18 mg/kg,0.28 h
same,t1/2,[3]; oral 18 mg/kg,3.6 ± 1.2 h
same,AUC0-t,[3]; oral 54 mg/kg,6790 ± 2749 ngh/mL
same,AUC0-∞,[3]; oral 54 mg/kg,7558 ± 2877 ngh/mL
same,Cmax,[3]; oral 54 mg/kg,4711 ± 2361 ng/mL
same,Tmax,[3]; oral 54 mg/kg,0.18 h
same,t1/2,[3]; oral 54 mg/kg,3.3 ± 0.7 h
same,"Tissue concentration, Brain",[4]; 5 min,101 ± 67
same,"Tissue concentration, Heart",[4]; 5 min,72 ± 47
same,"Tissue concentration, Kidney",[4]; 5 min,79 ± 54
same,"Tissue concentration, Liver",[4]; 5 min,104 ± 82
same,"Tissue concentration, Spleen",[4]; 5 min,48 ± 35
same,"Tissue concentration, Stomach",[4]; 5 min,8210 ± 5410
same,"Tissue concentration, Brain",[4]; 15 min,50 ± 10
same,"Tissue concentration, Heart",[4]; 15 min,132 ± 69
same,"Tissue concentration, Kidney",[4]; 15 min,259 ± 190
same,"Tissue concentration, Liver",[4]; 15 min,963 ± 290
same,"Tissue concentration, Spleen",[4]; 15 min,519 ± 281
same,"Tissue concentration, Stomach",[4]; 15 min,23180 ± 10170
same,"Tissue concentration, Brain",[4]; 360 min,31 ± 21
same,"Tissue concentration, Heart",[4]; 360 min,41 ± 28
same,"Tissue concentration, Kidney",[4]; 360 min,58 ± 21
same,"Tissue concentration, Liver",[4]; 360 min,262 ± 175
same,"Tissue concentration, Spleen",[4]; 360 min,143 ± 51
same,"Tissue concentration, Stomach",[4]; 360 min,52750 ± 3059
